Measurements taken from ChEMBL document CHEMBL3885861, “Open TG-GATES”.

Species on record: Rattus norvegicus
Assay: Open TG-GATES - Regimen: Daily Repeat
Type: toxicity, organism-based, Sprague-Dawley
Parameters: regimen Daily Repeat, gender Male, age 6 weeks
Settings: in vivo, po, route gavage; for Bas / Eos / Fbg / Lym / MCH / MCHC / MCV / Mono / Neu / PT / Plat / RBC / Ret / WBC: tissue Blood; for KIDNEY_L / KIDNEY_R / KIDNEY_TOTAL: tissue Kidney
[1] = 3 mg/kg, […], tissue Plasma, dose level Low, time 28 day
[2] = 10 mg/kg, 72 h, dose level Middle, time 3 day
[3] = 10 mg/kg, 72 h, tissue Plasma, dose level Middle, time 3 day
[4] = 10 mg/kg, […], dose level Middle, time 7 day
[5] = 10 mg/kg, […], dose level Middle, time 14 day
[6] = 10 mg/kg, […], dose level Middle, time 28 day
[7] = 10 mg/kg, […], tissue Plasma, dose level Middle, time 7 day
[8] = 10 mg/kg, […], tissue Plasma, dose level Middle, time 14 day

Cc1cnc(NC(=O)C2=C(O)c3ccccc3S(=O)(=O)N2C)s1 [MELOXICAM]
ALP [1]: 620 IU/L
ALT [1]: 33.6 IU/L
AST [1]: 64.4 IU/L
BUN [1]: 18.2 mg/dL
CRE [1]: 0.5 mg/dL
DBIL [1]: 0.1 mg/dL
GLC [1]: 235.2 mg/dL
IP [1]: 7.2 mg/dL
K [1]: 3.9 meq/L
LDH [1]: 170.8 IU/L
Na [1]: 142 meq/L
RALB [1]: 3.5 g/dL
TBIL [1]: 0.2 mg/dL
TC [1]: 71.2 mg/dL
TG [1]: 121.6 mg/dL
TP [1]: 5.9 g/dL
gamma-GTP [1]: 1.2 IU/L
TERMINAL_BW [2]: 246.9 g
Bas [2]: 0.8%
Eos [2]: 0.6%
Fbg [2]: 248.8 mg/dL
Lym [2]: 71.4%
MCH [2]: 21.7 pg
MCHC [2]: 34.1%
MCV [2]: 63.6 fL
Mono [2]: 3.4%
Neu [2]: 23.4%
PT [2]: 11.7 s
Plat [2]: 127 x10_4/uL
RBC [2]: 635.2 x10_4/ul
Ret [2]: 6%
WBC [2]: 135.2 x10_2/uL
KIDNEY_L [2]: 1.1 g
KIDNEY_R [2]: 1.1 g
KIDNEY_TOTAL [2]: 2.3 g
ALP [3]: 919 IU/L
ALT [3]: 43.2 IU/L
AST [3]: 75.4 IU/L
CRE [3]: 0.4 mg/dL
DBIL [3]: 0.1 mg/dL
IP [3]: 7.5 mg/dL
K [3]: 4.1 meq/L
LDH [3]: 242.6 IU/L
Na [3]: 142.2 meq/L
RALB [3]: 3.5 g/dL
TBIL [3]: 0.2 mg/dL
TC [3]: 79 mg/dL
TG [3]: 129.2 mg/dL
TP [3]: 5.7 g/dL
gamma-GTP [3]: 1 IU/L
TERMINAL_BW [4]: 277.9 g
TERMINAL_BW [5]: 321.8 g
TERMINAL_BW [6]: 398.2 g
Bas [4]: 0.6%
Eos [4]: 1%
Fbg [4]: 223.8 mg/dL
Lym [4]: 73.8%
MCH [4]: 21.5 pg
MCHC [4]: 34.5%
MCV [4]: 62.2 fL
Mono [4]: 2.8%
Neu [4]: 21.8%
PT [4]: 11.9 s
RBC [4]: 633 x10_4/ul
Ret [4]: 5.4%
WBC [4]: 119.8 x10_2/uL
Bas [5]: 1%
Eos [5]: 0.8%
Fbg [5]: 234.2 mg/dL
Lym [5]: 74.2%
MCH [5]: 20.3 pg
MCHC [5]: 33.7%
MCV [5]: 60 fL
Mono [5]: 3%
Neu [5]: 21.2%
PT [5]: 11.6 s
Plat [5]: 116.5 x10_4/uL
RBC [5]: 699.4 x10_4/ul
Ret [5]: 4.5%
WBC [5]: 135.2 x10_2/uL
Bas [6]: 1%
Eos [6]: 1%
Fbg [6]: 242.8 mg/dL
Lym [6]: 73%
MCH [6]: 19.4 pg
MCHC [6]: 33.9%
MCV [6]: 57.2 fL
Mono [6]: 3.2%
Neu [6]: 21.4%
PT [6]: 11.5 s
Plat [6]: 118.5 x10_4/uL
RBC [6]: 740.6 x10_4/ul
Ret [6]: 3.4%
WBC [6]: 170.5 x10_2/uL
KIDNEY_L [4]: 1.2 g
KIDNEY_R [4]: 1.2 g
KIDNEY_TOTAL [4]: 2.4 g
KIDNEY_L [5]: 1.4 g
KIDNEY_R [5]: 1.4 g
KIDNEY_TOTAL [5]: 2.7 g
KIDNEY_L [6]: 1.5 g
KIDNEY_R [6]: 1.5 g
KIDNEY_TOTAL [6]: 3 g
ALP [7]: 952.8 IU/L
ALT [7]: 34.2 IU/L
AST [7]: 72.6 IU/L
CRE [7]: 0.5 mg/dL
DBIL [7]: 0.094 mg/dL
IP [7]: 7.5 mg/dL
K [7]: 4.2 meq/L
LDH [7]: 197.8 IU/L
Na [7]: 141.4 meq/L
RALB [7]: 3.4 g/dL
TBIL [7]: 0.2 mg/dL
TC [7]: 68.4 mg/dL
TG [7]: 96.4 mg/dL
TP [7]: 5.6 g/dL
gamma-GTP [7]: 3.4 IU/L
ALP [8]: 873.6 IU/L
ALT [8]: 38.6 IU/L
AST [8]: 72.8 IU/L
BUN [8]: 17.8 mg/dL
CRE [8]: 0.4 mg/dL
DBIL [8]: 0.1 mg/dL
IP [8]: 7.2 mg/dL
K [8]: 4 meq/L
